Holding throughout (assay): relative viability (nuclei count vs DMSO), 5 days (fraction); higher = more cells survive
Compound in the assay “AGI-6780 + Luminespib”: O=C(Nc1cccc(C(F)(F)F)c1)Nc1cc(S(=O)(=O)NC2CC2)ccc1-c1ccsc1 [AGI-6780] + CCNC(=O)c1noc(-c2cc(C(C)C)c(O)cc2O)c1-c1ccc(CN2CCOCC2)cc1 [Luminespib] (partner 0.01 µM)
The gist of the method:
(§1)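 After 5 days of treatment, lung cancer cells in 1536-well plates were fixed and stained in a single step (final 0.05% Triton X-100, 1% formaldehyde, 1 ug/ml Hoechst) and their nuclei counted on 4× images. Treatment had been applied by pin tool the day after seeding as one drug alone or as a fixed anchor-drug dose with five library-drug doses (not always all listed) in √10 steps. Relative viability is the nuclei count of treated wells divided by that of vehicle wells, and values are medians of duplicate plates.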

Compound in the assay “AGI-6780 + Lapatinib”: O=C(Nc1cccc(C(F)(F)F)c1)Nc1cc(S(=O)(=O)NC2CC2)ccc1-c1ccsc1 [AGI-6780] + CS(=O)(=O)CCNCc1ccc(-c2ccc3ncnc(Nc4ccc(OCc5cccc(F)c5)c(Cl)c4)c3c2)o1 [Lapatinib] (partner 2 µM)
The gist of the method:
as §1

Compound in the assay “AGI-6780 + Decitabine”: O=C(Nc1cccc(C(F)(F)F)c1)Nc1cc(S(=O)(=O)NC2CC2)ccc1-c1ccsc1 [AGI-6780] + Nc1ncn([C@H]2C[C@H](O)[C@@H](CO)O2)c(=O)n1 [Decitabine] (partner 2 µM)
The gist of the method:
as §1

Compound in the assay “AGI-6780 + Olaparib”: O=C(Nc1cccc(C(F)(F)F)c1)Nc1cc(S(=O)(=O)NC2CC2)ccc1-c1ccsc1 [AGI-6780] + O=C(c1cc(Cc2n[nH]c(=O)c3ccccc23)ccc1F)N1CCN(C(=O)C2CC2)CC1 [Olaparib] (partner 8 µM)
An outline of the steps:
as §1

For BEN, the relative viability in the assay with AGI-6780 + Luminespib (first compound 0.08 µM) was 0.355; in the assay with AGI-6780 + Luminespib (first compound 0.253 µM) it was 0.331; with AGI-6780 + Luminespib (first compound 0.8 µM), 0.37; in the assay with AGI-6780 + Luminespib (first compound 2.53 µM), 0.33; with AGI-6780 + Luminespib (first compound 8 µM), 0.358; with AGI-6780 + Lapatinib (first compound 0.08 µM), 0.569. For the same cell line, the relative viability in the assay with AGI-6780 + Lapatinib (first compound 0.253 µM) amounted to 0.703; with AGI-6780 + Lapatinib (first compound 0.8 µM), 0.91; with AGI-6780 + Lapatinib (first compound 8 µM), 0.637; with AGI-6780 + Decitabine (first compound 0.08 µM) it was 0.662; with AGI-6780 + Decitabine (first compound 0.253 µM) it was 0.757; with AGI-6780 + Decitabine (first compound 0.8 µM) it was 0.722. Moreover, the relative viability with AGI-6780 + Decitabine (first compound 8 µM) turned out to be 0.836; with AGI-6780 + Olaparib (first compound 0.08 µM), 1.02; with AGI-6780 + Olaparib (first compound 0.253 µM), 1.02; with AGI-6780 + Olaparib (first compound 0.8 µM), 1.22; with AGI-6780 + Olaparib (first compound 8 µM) it was 0.961.

For the cell line COR-L23, the relative viability with AGI-6780 + Luminespib (first compound 0.08 µM) turned out to be 0.772; with AGI-6780 + Luminespib (first compound 0.253 µM), 0.641; with AGI-6780 + Luminespib (first compound 0.8 µM) it was 0.695; in the assay with AGI-6780 + Luminespib (first compound 2.53 µM), 0.663; with AGI-6780 + Luminespib (first compound 8 µM), 0.643; with AGI-6780 + Lapatinib (first compound 0.08 µM) it was 0.905. Further, the relative viability in the assay with AGI-6780 + Lapatinib (first compound 0.253 µM) was determined as 0.919; with AGI-6780 + Lapatinib (first compound 0.8 µM), 0.982; with AGI-6780 + Lapatinib (first compound 2.53 µM), 1.31; with AGI-6780 + Lapatinib (first compound 8 µM), 0.997; with AGI-6780 + Decitabine (first compound 0.08 µM) it was 0.449; with AGI-6780 + Decitabine (first compound 0.253 µM), 0.455. Further, the relative viability with AGI-6780 + Decitabine (first compound 0.8 µM) is 0.477; in the assay with AGI-6780 + Decitabine (first compound 2.53 µM), 0.399; with AGI-6780 + Decitabine (first compound 8 µM), 0.416; in the assay with AGI-6780 + Olaparib (first compound 0.08 µM), 0.349; with AGI-6780 + Olaparib (first compound 0.253 µM), 0.385; with AGI-6780 + Olaparib (first compound 0.8 µM) it was 0.274. The relative viability with AGI-6780 + Olaparib (first compound 2.53 µM) was 0.32; with AGI-6780 + Olaparib (first compound 8 µM), 0.387.

On to ABC-1, for which the relative viability came to 0.58 in the assay with AGI-6780 + Luminespib (first compound 0.08 µM); 0.447 with AGI-6780 + Luminespib (first compound 0.253 µM); 0.63 with AGI-6780 + Luminespib (first compound 0.8 µM); 0.821 in the assay with AGI-6780 + Luminespib (first compound 2.53 µM); 0.408 with AGI-6780 + Luminespib (first compound 8 µM); 1.26 with AGI-6780 + Lapatinib (first compound 0.08 µM). The relative viability with AGI-6780 + Lapatinib (first compound 0.253 µM) is 1.2; in the assay with AGI-6780 + Lapatinib (first compound 0.8 µM), 1.27; with AGI-6780 + Lapatinib (first compound 2.53 µM), 1.16; in the assay with AGI-6780 + Lapatinib (first compound 8 µM), 1.27; with AGI-6780 + Decitabine (first compound 0.253 µM) it was 1.42; with AGI-6780 + Decitabine (first compound 0.8 µM), 0.87. Further, the relative viability with AGI-6780 + Decitabine (first compound 2.53 µM) turned out to be 1.05; in the assay with AGI-6780 + Decitabine (first compound 8 µM), 0.924; with AGI-6780 + Olaparib (first compound 0.253 µM) it was 0.965; with AGI-6780 + Olaparib (first compound 0.8 µM), 0.888; with AGI-6780 + Olaparib (first compound 2.53 µM), 0.779; in the assay with AGI-6780 + Olaparib (first compound 8 µM) it was 0.792.

For NCI-H2170, the relative viability was found to be 0.603 with AGI-6780 + Luminespib (first compound 0.08 µM); 0.729 in the assay with AGI-6780 + Luminespib (first compound 0.253 µM); 0.682 in the assay with AGI-6780 + Luminespib (first compound 0.8 µM); 0.403 with AGI-6780 + Luminespib (first compound 2.53 µM); 0.719 with AGI-6780 + Luminespib (first compound 8 µM); 0.291 in the assay with AGI-6780 + Lapatinib (first compound 0.08 µM). Further, the relative viability in the assay with AGI-6780 + Lapatinib (first compound 0.253 µM) worked out at 0.281; in the assay with AGI-6780 + Lapatinib (first compound 0.8 µM), 0.272; with AGI-6780 + Lapatinib (first compound 8 µM), 0.257; with AGI-6780 + Decitabine (first compound 0.08 µM), 0.469; in the assay with AGI-6780 + Decitabine (first compound 0.253 µM), 0.495; with AGI-6780 + Decitabine (first compound 0.8 µM), 0.477. Further, the relative viability is 0.459 with AGI-6780 + Decitabine (first compound 8 µM); 0.589 with AGI-6780 + Olaparib (first compound 0.08 µM); 0.587 with AGI-6780 + Olaparib (first compound 0.253 µM); 0.67 in the assay with AGI-6780 + Olaparib (first compound 0.8 µM); 0.59 with AGI-6780 + Olaparib (first compound 8 µM).

As to SK-LU-1, the relative viability in the assay with AGI-6780 + Luminespib (first compound 0.08 µM) is 0.22; with AGI-6780 + Luminespib (first compound 0.253 µM), 0.192; with AGI-6780 + Luminespib (first compound 2.53 µM), 0.199; in the assay with AGI-6780 + Luminespib (first compound 8 µM), 0.224; with AGI-6780 + Lapatinib (first compound 0.08 µM) it was 0.928; in the assay with AGI-6780 + Lapatinib (first compound 0.253 µM), 0.857. Besides, the relative viability in the assay with AGI-6780 + Lapatinib (first compound 0.8 µM) was determined as 0.683; with AGI-6780 + Lapatinib (first compound 2.53 µM), 0.863; with AGI-6780 + Lapatinib (first compound 8 µM) it was 1.14; in the assay with AGI-6780 + Decitabine (first compound 0.08 µM) it was 0.73; in the assay with AGI-6780 + Decitabine (first compound 0.253 µM), 0.63; with AGI-6780 + Decitabine (first compound 0.8 µM) it was 0.567. The relative viability in the assay with AGI-6780 + Decitabine (first compound 2.53 µM) turned out to be 0.583; with AGI-6780 + Decitabine (first compound 8 µM), 0.572; with AGI-6780 + Olaparib (first compound 0.08 µM), 0.506; with AGI-6780 + Olaparib (first compound 0.253 µM), 0.482; with AGI-6780 + Olaparib (first compound 0.8 µM) it was 0.349; with AGI-6780 + Olaparib (first compound 2.53 µM), 0.402. Besides, the relative viability with AGI-6780 + Olaparib (first compound 8 µM) came to 0.456.

(Values after the supplement of paper PMC10307832.)
